Laboratory results as given in patent EP4759812A1 (Guangzhou Lupeng Pharmaceutical Co., Ltd., priority 2023, dated 2025).
Entries after “also recorded” stand apart in the source; their conditions may differ.

How the values were obtained:
Type in all cases: physicochemical
[1] = Dynamic vapor sorption (DVS) experiment; details: for Hygroscopicity: class per Chinese Pharmacopoeia 2010 guidance (25±0.2°C, 80% relative humidity)
[2] = Stability test in pure water and buffer solution (suspension, XRPD); details: 25°C, stirred 24 h, solid by XRPD
Protocol: The suspensions were stirred at 25°C for 24 h, and filtered to obtain the solids. Samples were taken for XRPD measurement. […]

[3] = Influencing factor stability: high-humidity test; details: Temperature 25°C, relative humidity 92.5±5%; for Purity: HPLC, starting purity: Crystal form VI 99.32%, Amorphous form 98.80%, Crystal form XIII 99.01%; for Crystal form: XRPD
Protocol: (§1) The crystal form results under different conditions were identified by XRPD analysis, and the purity results under different conditions were identified by HPLC analysis.
(§2) The above samples were then taken on days 5, 10, 15, and 30, respectively. Their crystal forms were tested by adopting X-ray powder diffraction (XRPD), and the sample purities were tested by adopting HPLC. […]

[4] = Influencing factor stability: high-temperature test; details: Temperature 60°C; for Purity: HPLC, starting purity: Crystal form VI 99.32%, Amorphous form 98.80%, Crystal form XIII 99.01%; for Crystal form: XRPD
Protocol: as §1, §2

[5] = Influencing factor stability: light exposure test; details: Visible light 4500 Lux ± 500 Lux; for Crystal form: ultraviolet light 1.7 W*h/m^2 (25°C, RH 60%±5%), XRPD; for Purity: HPLC, starting purity: Crystal form VI 99.32%, Amorphous form 98.80%, Crystal form XIII 99.01%
Protocol: as §1, §2

[6] = Accelerated stability test; details: 40±2°C, 75±5 RH %; for Crystal form: XRPD
Long-term stability test = details: 25±2°C, 60±5 RH %; for Crystal form: XRPD
[7] = Morphological comparison under polarizing light microscope

Adsorption weight gain (80% RH) ([1]; DVS, 80% RH): 0.79%
Adsorption weight gain (95% RH) ([1]; DVS, 95% RH): 1.34%
Suspension result ([2]; Pure water): Crystal form VI
Suspension result ([2]; pH 4.5 buffer solution): Crystal form VI
Suspension result ([2]; pH 6.8 buffer solution): Crystal form VI
Purity ([3]; 5 days): 99.35%
Crystal form ([3]; 5 days): Crystal form VI
Purity ([3]; 10 days): 99.35%
Crystal form ([3]; 10 days): Crystal form VI
Purity ([3]; 15 days): 99.32%
Crystal form ([3]; 15 days): Crystal form VI
Purity ([3]; 30 days): 99.31%
Crystal form ([3]; 30 days): Crystal form VI
Purity ([4]; 5 days): 99.31%
Crystal form ([4]; 5 days): Crystal form VI
Purity ([4]; 10 days): 99.25%
Crystal form ([4]; 10 days): Crystal form VI
Purity ([4]; 15 days): 98.96%
Crystal form ([4]; 15 days): Crystal form VI
Purity ([4]; 30 days): 98.72%
Crystal form ([4]; 30 days): Crystal form VI
Crystal form ([4]; 30 days, listed as crystal form VI): no change in crystal form
Crystal form ([5]; 5 days): Crystal form VI
Crystal form ([5]; 10 days): Crystal form VI
Crystal form ([5]; 15 days): Crystal form VI
Crystal form ([5]; 30 days): Crystal form VI
Purity ([5]; ultraviolet light 1.7 W*h/m^2, 5 days): 99.17%
Purity ([5]; ultraviolet light 1.7 W*h/m^2, 10 days): 99.23%
Purity ([5]; ultraviolet light 1.7 W*h/m^2, 15 days): 98.71%
Purity ([5]; ultraviolet light 1.7 W*h/m^2, 30 days): 98.14%
Purity ([6]; 0 days): 99.32%
Crystal form ([6]; 0 days): Crystal form VI
Purity ([6]; 1 month): 99.18%
Crystal form ([6]; 1 month): Crystal form VI
Purity ([6]; 3 months): 98.98%
Crystal form ([6]; 3 months): Crystal form VI
Purity ([6]; 6 months): 98.54%
Crystal form ([6]; 6 months): Crystal form VI
Crystal form ([6]; 6 months, listed as crystal form VI): no change in crystal form
Purity (Long-term stability test; 0 days): 99.32%
Crystal form (Long-term stability test; 0 days): Crystal form VI
Purity (Long-term stability test; 1 month): 99.31%
Crystal form (Long-term stability test; 1 month): Crystal form VI
Purity (Long-term stability test; 6 months): 99.35%
Crystal form (Long-term stability test; 6 months): Crystal form VI
Purity (Long-term stability test; 12 months): 99.28%
Crystal form (Long-term stability test; 12 months): Crystal form VI
Purity (Long-term stability test; 18 months): 99.31%
Crystal form (Long-term stability test; 18 months): Crystal form VI
Purity (Long-term stability test; 24 months): 99.30%
Crystal form (Long-term stability test; 24 months): Crystal form VI
Crystal form (Long-term stability test; 24 months, listed as crystal form VI): no change in crystal form
crystal morphology ([7]; polarizing light microscope): long rod-shaped
SMILES: C=CC(=O)Nc1cc(Nc2nc(-c3ccnc(N4CCn5c(cc6c5CC(C)(C)C6)C4=O)c3CO)cn(C)c2=O)ccc1N1CCN(C2CCOCC2)C[C@@H]1C [Crystal form VI, (S)-N-(5-((6-(2-(7,7-dimethyl-1-oxo-1,3,4,6,7,8-hexahydro-2H-cyclopenta[4,5]pyrrolo[1,2-a]pyrazin-2-yl)-3-(hydroxymethyl)pyridin-4-yl)-4-methyl-3-oxo-3,4-dihydropyrazin-2-yl)amino)-2-(2-methyl-4-(tetrahydro-2H-pyran-4-yl)piperazin-1-yl)phenyl)acrylamide]
Hygroscopicity [1]: Slightly hygroscopic (hygroscopic weight gain is less than 2% but not less than 0.2%)
Hygroscopicity ([1]; listed as crystal form VI): slightly hygroscopic; also recorded: slight hygroscopicity
dispersibility and flowability / agglomeration and caking ([7]; judged from polarizing light microscope images): relatively good dispersibility and flowability
